According to ChEMBL document CHEMBL5052856, “Inhibitors of apol1 and methods of using same” (2021):

Biological target: Apolipoprotein L1 (Homo sapiens, UniProt O14791)
Assay: Inhibition of APOL1 G1 variant in human HEK293-T-REx cells measured by Thallium assay
Format: cell-based

Structure (SMILES) | IC50
CCNC(=O)NC[C@H]1C[C@H](c2c(-c3ccc(F)cc3)[nH]c3c(F)cc(F)cc32)C1 | > 1 µM
Cc1cnc(CNC(=O)O[C@H]2C[C@H](c3c(-c4ccc(F)cc4)[nH]c4c(F)cc(F)cc43)C2)o1 | > 1 µM
C[C@]1(NC(=O)NC[C@H]2C[C@H](c3c(-c4ccc(F)cc4)[nH]c4c(F)cc(F)cc43)C2)C[C@@H](O)C1 | > 1 µM
O=C(NCc1ccoc1)C1CC(Cc2c(-c3ccc(F)cc3)[nH]c3c(F)cc(F)cc23)C1 (centres undefined) | > 1 µM
O=C1CCC(NC(=O)[C@H]2C[C@@H](c3c(-c4ccc(F)cc4)[nH]c4c(F)cc(F)cc43)C2)C(=O)N1 (some centres undefined) | > 1 µM
O=C(N[C@@H](CO)C(F)F)[C@H]1C[C@H](c2c(-c3ccc(F)cc3)[nH]c3c(F)cc(F)cc32)C1 | < 0.25 µM
O=C(NCC(F)F)N1CC(c2c(-c3ccc(F)cc3)[nH]c3c(F)cc(F)cc23)C1 | 0.00025 µM
O=C(N[C@@H](CO)C(F)F)[C@H]1C[C@@H](c2c(-c3ccc(F)cc3)[nH]c3c(F)cc(F)cc32)C1 | 0.00025 µM
O=C(NCC1CC1)O[C@H]1C[C@H](c2c(-c3ccc(F)cc3)[nH]c3c(F)cc(F)cc32)C1 | > 1 µM
C[C@@H](O)CNC(=O)N(C)CC1CC(c2c(-c3ccc(F)cc3)[nH]c3c(F)cc(F)cc23)C1 (some centres undefined) | > 1 µM
O=C(CNC[C@H]1C[C@H](c2c(-c3ccc(F)cc3)[nH]c3c(F)cc(F)cc32)C1)NCO | < 0.25 µM
C[C@H](O)[C@H](CO)NC(=O)O[C@H]1C[C@H](c2c(-c3ccc(F)cc3)[nH]c3c(F)cc(F)cc32)C1 | > 1 µM
O=C(NC(CO)(CO)CO)[C@H]1C[C@@H](c2c(-c3ccc(F)cc3)[nH]c3c(F)cc(F)cc32)C1 | 0.00025 µM
O=C(CNC(=O)[C@H]1C[C@H](c2c(-c3ccc(F)cc3)[nH]c3c(F)cc(F)cc32)C1)NC[C@H](O)C(F)(F)F | > 1 µM
O=C1CN(C(=O)[C@H]2C[C@@H](c3c(-c4ccc(F)cc4)[nH]c4c(F)cc(F)cc43)C2)CCN1 | > 1 µM
O=C(NCCO)C1CC(c2c(-c3ccc(F)cc3)[nH]c3c(F)cc(C(F)(F)F)cc23)C1 (centres undefined) | 0.00025 µM
O=C(NC[C@H]1C[C@H](c2c(-c3ccc(F)cc3)[nH]c3c(F)cc(F)cc32)C1)N[C@H]1CC[C@H](O)C1 | > 1 µM
N#CC(CO)NC(=O)C1CC(Cc2c(-c3ccc(F)cc3)[nH]c3c(F)cc(F)cc23)C1 (centres undefined) | > 1 µM
O=C(Nc1ccc[nH]c1=O)C1CC(Cc2c(-c3ccc(F)cc3)[nH]c3c(F)cc(F)cc23)C1 (centres undefined) | > 1 µM
O=C(CC1CC(c2c(-c3ccc(F)cc3)[nH]c3c(F)cc(F)cc23)C1)N[C@H]1CCNC1=O (some centres undefined) | > 1 µM

Structure (SMILES) | IC50
C[C@@H](CO)NC(=O)N[C@H]1C[C@H](c2c(-c3ccc(F)cc3)[nH]c3c(F)cc(F)cc32)C1 | 0.00025 µM
CC(C)C(CO)NC(=O)[C@H]1C[C@@H](c2c(-c3ccc(F)cc3)[nH]c3c(F)cc(F)cc32)C1 (some centres undefined) | > 1 µM
O=C(N[C@@H](CO)C(F)(F)F)C1CC(Cc2c(-c3ccc(F)cc3)[nH]c3c(F)cc(F)cc23)C1 (some centres undefined) | > 1 µM
CON(C)C(=O)CN[C@H]1C[C@H](c2c(-c3ccc(F)cc3)[nH]c3c(F)cc(F)cc32)C1 | > 1 µM
CC(C)NC(=O)CNC[C@H]1C[C@H](c2c(-c3ccc(F)cc3)[nH]c3c(F)cc(F)cc32)C1 | > 1 µM
O=C(NC1(CCO)CC1)C1CC(Cc2c(-c3ccc(F)cc3)[nH]c3c(F)cc(F)cc23)C1 (centres undefined) | > 1 µM
C[C@H](O)CNC(=O)N(C)CC1CC(c2c(-c3ccc(F)cc3)[nH]c3c(F)cc(F)cc23)C1 (some centres undefined) | > 1 µM
O=C(CC1CC(c2c(-c3ccc(F)cc3)[nH]c3c(F)cc(F)cc23)C1)NC1(CO)CCC1 (centres undefined) | > 1 µM
O=C(NCC(O)CO)[C@H]1C[C@@H](c2c(-c3ccc(F)cc3)[nH]c3c(F)cc(F)cc32)C1 (some centres undefined) | > 1 µM
O=C(CC1CC(c2c(-c3ccc(F)cc3)[nH]c3c(F)cc(F)cc23)C1)N[C@@H](CO)C(F)(F)F (some centres undefined) | > 1 µM
COCC(C)NC(=O)O[C@H]1C[C@H](c2c(-c3ccc(F)cc3)[nH]c3c(F)cc(F)cc32)C1 (some centres undefined) | 0.00025 µM
Cn1cnc(CNC(=O)[C@H]2C[C@@H](c3c(-c4ccc(F)cc4)[nH]c4c(F)cc(F)cc43)C2)c1 | > 1 µM
O=C(NC(CO)CO)[C@H]1C[C@@H](c2c(-c3ccc(F)cc3)[nH]c3c(F)cc(F)cc32)C1 | > 1 µM
CC1(O)CC(NC(=O)O[C@H]2C[C@H](c3c(-c4ccc(F)cc4)[nH]c4c(F)cc(F)cc43)C2)C1 (some centres undefined) | > 1 µM
O=C1CC(CNC(=O)C2CC(Cc3c(-c4ccc(F)cc4)[nH]c4c(F)cc(F)cc34)C2)CN1 (centres undefined) | > 1 µM
CC(C)(CO)NC(=O)[C@H]1C[C@@H](c2c(-c3ccc(F)cc3)[nH]c3c(F)cc(F)cc32)C1 | 0.00025 µM
O=C1NC[C@@H](O)[C@@H]1NC(=O)[C@H]1C[C@H](c2c(-c3ccc(F)cc3)[nH]c3c(F)cc(F)cc32)C1 | < 0.25 µM
O=C(NCCO)NC[C@H]1C[C@H](c2c(-c3ccc(F)cc3)[nH]c3c(F)cc(F)cc32)C1 | > 1 µM
O=C(NCCO)O[C@H]1C[C@H](c2c(-c3ccc(F)cc3)[nH]c3c(F)cc(F)cc32)C1 | 0.00025 µM
